Results published in ChEMBL document CHEMBL3045576, “Azadirachtin avoidance by larvae and adult females of the tomato leafminer Tuta absoluta” (2013).
Activity calls are given as the source filed them. The rule behind the calls is not given here.

Experiments:
[1] = tested on: Tuta absoluta; assay: Walking avoidance activity against second-instar larval stage of Tuta absoluta Vicosa infested compound-pretreated filter paper assessed as effect on walking time at LC90 concentration measured for 10 min; assay type: functional, organism-based
[2] = tested on: Tuta absoluta; assay: Egg-laying avoidance activity against non-sexed adult stage of Tuta absoluta Araguari in compound-pretreated tomato leaves assessed as decrease in number of eggs laid at LC10 to LC90 concentration measured for 2 days by no-choice test; assay type: functional, organism-based
[3] = tested on: Tuta absoluta; assay: Egg-laying avoidance activity against non-sexed adult stage of Tuta absoluta Vicosa in compound-pretreated tomato leaves assessed as decrease in number of eggs laid at LC10 to LC90 concentration measured for 2 days by no-choice test; assay type: functional, organism-based
[4] = tested on: Tuta absoluta; assay: Egg-laying avoidance activity against non-sexed adult stage of Tuta absoluta Araguari in compound-pretreated tomato leaves assessed as decrease in number of eggs laid at equal to and greater than LC50 concentration measured for 2 days by free-choice test; assay type: functional, organism-based
[5] = tested on: Tuta absoluta; assay: Egg-laying avoidance activity against non-sexed adult stage of Tuta absoluta Vicosa in compound-pretreated tomato leaves assessed as decrease in number of eggs laid measured for 2 days by free-choice test; assay type: functional, organism-based
[6] = tested on: Tuta absoluta; assay: Resistance ratio of LC90 for Tuta absoluta Vicosa larvae to LC90 for Tuta absoluta Araguari larvae; assay type: functional
[7] = tested on: Tuta absoluta; assay: Resistance ratio of LC50 for Tuta absoluta Vicosa larvae to LC50 for Tuta absoluta Araguari larvae; assay type: functional
[8] = tested on: Tuta absoluta; assay: Resistance ratio of LC10 for Tuta absoluta Vicosa larvae to LC10 for Tuta absoluta Araguari larvae; assay type: functional
[9] = tested on: Tuta absoluta; assay: Insecticidal activity against Tuta absoluta Araguari larvae in compound-pre-treated tomato leaves assessed as mortality after 144 hr; assay type: functional
[10] = tested on: Tuta absoluta; assay: Insecticidal activity against Tuta absoluta Vicosa larvae in compound-pre-treated tomato leaves assessed as mortality after 144 hr; assay type: functional
[11] = tested on: Tuta absoluta; assay: Insecticidal activity against second-instar larval stage of Tuta absoluta in tomato leaves assessed as delay in larval development at 27 mg ai/L incubated for 5 s prior to larval infestation after 9 days; assay type: functional, organism-based
[12] = tested on: Tuta absoluta; assay: Insecticidal activity against second-instar larval stage of Tuta absoluta in tomato leaves assessed as survival rate at 27 mg ai/L incubated for 5 s prior to larval infestation after 9 days (reference value: >60%); assay type: functional; conditions: 216 h
[13] = tested on: Tuta absoluta; assay: Insecticidal activity against second-instar larval stage of Tuta absoluta in tomato leaves assessed as survival rate at 1.7 mg ai/L incubated for 5 s prior to larval infestation after 9 days (reference value: >60%); assay type: functional; conditions: 216 h
[14] = tested on: Tuta absoluta; assay: Effect on leaf mining activity of Tuta absoluta Vicosa second-instar larvae in compound-pretreated tomato leaves assessed as length of time required to mine the leaf at LC10 to LC90 concentration; assay type: functional
[15] = tested on: Tuta absoluta; assay: Effect on leaf mining activity of Tuta absoluta Araguari second-instar larvae in compound-pretreated tomato leaves assessed as length of time required to mine the leaf at LC10 to LC90 concentration; assay type: functional
[16] = tested on: Tuta absoluta; assay: Walking avoidance activity against second-instar larval stage of Tuta absoluta Araguari in compound-pretreated tomato leaves assessed as decrease in walking time at LC10 concentration measured after 6 hr; assay type: functional, organism-based
[17] = tested on: Tuta absoluta; assay: Walking avoidance activity against second-instar larval stage of Tuta absoluta Vicosa in compound-pretreated tomato leaves assessed as decrease in walking time at LC10 concentration measured after 6 hr; assay type: functional, organism-based
[18] = tested on: Tuta absoluta; assay: Walking avoidance activity against second-instar larval stage of Tuta absoluta Araguari in compound-pretreated tomato leaves assessed as decrease in walking time at LC50 to LC90 concentration measured after 6 hr; assay type: functional, organism-based
[19] = tested on: Tuta absoluta; assay: Walking avoidance activity against second-instar larval stage of Tuta absoluta Vicosa in compound-pretreated tomato leaves assessed as decrease in walking time at LC50 to LC90 concentration measured after 6 hr; assay type: functional, organism-based
[20] = tested on: Tuta absoluta; assay: Walking avoidance activity against fourth-instar larval stage of Tuta absoluta Araguari infested compound-pretreated filter paper assessed as effect on walking time at LC90 concentration measured for 10 min; assay type: functional, organism-based
[21] = tested on: Tuta absoluta; assay: Walking avoidance activity against second-instar larval stage of Tuta absoluta Araguari infested compound-pretreated filter paper assessed as effect on walking time at LC90 concentration measured for 10 min; assay type: functional, organism-based
[22] = tested on: Tuta absoluta; assay: Walking avoidance activity against fourth-instar larval stage of Tuta absoluta Vicosa infested compound-pretreated filter paper assessed as effect on walking time at LC90 concentration measured for 10 min; assay type: functional, organism-based

**Q.** `C/C=C(\C)C(=O)O[C@H]1C[C@@H](OC(C)=O)[C@@]2(C(=O)OC)CO[C@H]3[C@@H](O)[C@@](C)([C@]45O[C@@]4(C)[C@@H]4C[C@H]5O[C@@H]5OC=C[C@@]54O)[C@H]4[C@]1(CO[C@]4(O)C(=O)OC)[C@@H]32` [AZADIRACHTIN A] was tested. Which Activity [1] did it give?
**A.** inactive

**Q.** What about the inhibition [2] of the same molecule?
**A.** inactive

**Q.** What about the inhibition [3] of the same molecule?
**A.** inactive

**Q.** What about the inhibition [4] of the same molecule?
**A.** Active

**Q.** And the inhibition [5]?
**A.** Dose-dependent effect

**Q.** What about the Ratio [6] of the same molecule?
**A.** 1.96

**Q.** And the Ratio [7]?
**A.** 1.8

**Q.** And the Ratio [8]?
**A.** 1.65

**Q.** And the LC10 [9]?
**A.** 0.97 mgAi/L

**Q.** And the LC50 [9]?
**A.** 5.62 mgAi/L

**Q.** What about the LC90 [9] of the same molecule?
**A.** 32.71 mgAi/L

**Q.** And the LC10 [10]?
**A.** 1.59 mgAi/L

**Q.** What about the LC50 [10] of the same molecule?
**A.** 10.09 mgAi/L

**Q.** What about the LC90 [10] of the same molecule?
**A.** 64.06 mgAi/L

**Q.** And the Activity [11]?
**A.** Active

**Q.** What about the survival at 27 µg/mL [12] of the same molecule?
**A.** < 4%

**Q.** What about the survival at 1.7 µg/mL [13] of the same molecule?
**A.** 25%

**Q.** What about the Time [14] of the same molecule?
**A.** 33.56 min

**Q.** What about the Time [15] of the same molecule?
**A.** 38.72 min

**Q.** And the inhibition [16]?
**A.** inactive

**Q.** And the inhibition [17]?
**A.** inactive

**Q.** What about the inhibition [18] of the same molecule?
**A.** Active

**Q.** What about the inhibition [19] of the same molecule?
**A.** Active

**Q.** What about the Activity [20] of the same molecule?
**A.** inactive

**Q.** And the Activity [21]?
**A.** inactive

**Q.** And the Activity [22]?
**A.** inactive
